The source of these data is patent publication US20230085307A1, “PYRIDAZINONE COMPOUND AND HERBICIDE” (NISSAN CHEMICAL CORPORATION, priority 2019, published 2023).

Assay type in all cases: in vivo
Data set [1] relates to wheat. The experiment in a line: Test Example 5: effect on crop by foliage application, plastic box (Table 20, symbol e). The note with it: 320 g/ha. The essentials: (§1)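 Sow seeds spot-wise in sterilized diluvial soil; cover with ~1.5 cm soil. Grow 14 days in greenhouse, 25° C. to 30° C. Spray foliage with emulsion diluted to predetermined amount. Rate effect after 3 weeks.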

Data set [2] deals with corn. The experiment in a line: Test Example 4: effect on crop by soil treatment (Table 19, symbol c). The essentials: (§2)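 Soil-surface application: an emulsion agent diluted with water to the predetermined dose is sprayed uniformly over seeds lying under roughly 1.5 cm of sterilized diluvial soil. Boxes stay in a greenhouse at 25° C. to 30° C. Three weeks later, each species is graded on previously defined criteria.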

Data set [3] has as its system wheat. The experiment in a line: Test Example 4: effect on crop by soil treatment (Table 19, symbol e). A digest of the protocol: as §2
Data set [4] relates to directly sowed rice. Nature of the data set: Test Example 3: effect on crop by foliage application, Wagner pot (Table 18, symbol b). The conditions noted are these: 320 g/ha. A digest of the protocol:
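Plants were sown in alluvial soil held under 0.1–0.5 cm standing water and grown 14 days in a greenhouse at 25–30 °C. An emulsifiable formulation, water-diluted to the set dose, was then sprayed onto the foliage, and effects were scored three weeks later using previously defined criteria.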

Data set [5] concerns corn. Nature of the data set: Test Example 5: effect on crop by foliage application, plastic box (Table 20, symbol c). The conditions noted are these: 320 g/ha. The essentials:
as §1

The test system of data set [6] is beet. The experiment in a line: Test Example 5: effect on crop by foliage application, plastic box (Table 20, symbol f). The note with it: 320 g/ha. A digest of the protocol:
as §1

In data set [7] the test system is rapeseed. The experiment in a line: Test Example 4: effect on crop by soil treatment (Table 19, symbol g). The essentials:
as §2

The subject of data set [8] is soybean. Nature of the data set: Test Example 5: effect on crop by foliage application, plastic box (Table 20, symbol d). The note with it: 320 g/ha. The essentials: as §1
The test system of data set [9] is soybean. The experiment in a line: Test Example 4: effect on crop by soil treatment (Table 19, symbol d). A digest of the protocol: as §2
Setting [10] is: amount of applied herbicide 320 g/ha.
Setting [11] is: evaluated three weeks after application.

With `Cc1nn(C)c(=O)c(-c2c(-c3ccc(C#N)cc3)sc3ccccc23)c1O` [Compound No. 1-045, 5-hydroxy-2,6-dimethyl-4-(2-(4-cyanophenyl)benzo[b]thiophen-3-yl)pyridazin-3(2H)-one], the “effect on crop grade, e: wheat” value in data set [1] (three weeks after application) is 0 (Herbicidal rate of 5% or less (almost no effect)). Moreover, in [2] (setting [10]), the “effect rating on crop, c: corn” value is on record as 0 (Herbicidal rate of 5% or less (almost no effect)). Moreover, the “effect rating on crop, e: wheat” value in [3] (setting [10]) is listed as 0 (Herbicidal rate of 5% or less (almost no effect)). Also, the “effect on crop b (directly sowed rice), rating 0-5” value (from here on “effect on crop b”) in [4] is recorded as 0 (Herbicidal rate of 5% or less (almost no effect)). In addition, in data set [5] (three weeks after application), the “effect on crop grade, c: corn” value is 0 (Herbicidal rate of 5% or less (almost no effect)). Also, the “effect on crop grade, f: beet” value in data set [6] (three weeks after application) was 5 (Herbicidal rate of 90% or more (almost completely withered)). Moreover, in [7] (setting [10]), the “effect rating on crop, g: rapeseed” value is 5 (Herbicidal rate of 90% or more (almost completely withered)). Moreover, in [8] (three weeks after application), the “effect on crop grade, d: soybean” value is 1 (Herbicidal rate of 5% or more and less than 20%). The “effect rating on crop, d: soybean” value in data set [9] (setting [10]) is 3 (Herbicidal rate of 40% or more and less than 70%).

Consider `Cc1nn(C)c(=O)c(-c2c(-c3ccc(Cl)cc3)sc3ccc(F)cc23)c1O` [Compound No. 2-010, 4-(2-(4-chlorophenyl)-5-fluorobenzo[b]thiophen-3-yl)-5-hydroxy-2,6-dimethylpyridazin-3(2H)-one], for which the “effect on wheat (e)” value in data set [1] (3 weeks after application) was 0 (Herbicidal rate of 5% or less (almost no effect)). Further, the “effect rating on crop, c: corn” value in data set [2] (320 g/ha) is recorded as 0 (Herbicidal rate of 5% or less (almost no effect)). In addition, in data set [3] (320 g/ha), the “effect rating on crop, e: wheat” value was 0 (Herbicidal rate of 5% or less (almost no effect)). The “effect on crop b” value in data set [4] is 0 (Herbicidal rate of 5% or less (almost no effect)). Further, in data set [5] (3 weeks after application), the “effect on corn (c)” value is recorded as 0 (Herbicidal rate of 5% or less (almost no effect)). Moreover, the “effect on beet (f)” value in [6] (3 weeks after application) is 5 (Herbicidal rate of 90% or more (almost completely withered)). For the same compound, the “effect rating on crop, g: rapeseed” value in [7] (320 g/ha) is 3 (Herbicidal rate of 40% or more and less than 70%). In data set [8] (3 weeks after application), the “effect on soybean (d)” value is 3 (Herbicidal rate of 40% or more and less than 70%). In [9] (320 g/ha), the “effect rating on crop, d: soybean” value is listed as 0 (Herbicidal rate of 5% or less (almost no effect)).

Turning to `COc1cc(F)ccc1-c1sc2ccc(Cl)cc2c1-c1c(O)c(C)nn(C)c1=O` [Compound No. 2-095, 4-(5-chloro-2-(4-fluoro-2-methoxyphenyl)benzo[b]thiophen-3-yl)-5-hydroxy-2,6-dimethylpyridazin-3(2H)-one], the “effect on crop, e: wheat” value in [1] (setting [11]) is 1 (Herbicidal rate of 5% or more and less than 20%). The “effect rating on crop, c: corn” value in data set [2] (320 g/ha) was 0 (Herbicidal rate of 5% or less (almost no effect)). In [3] (320 g/ha), the “effect rating on crop, e: wheat” value was 0 (Herbicidal rate of 5% or less (almost no effect)). The “effect on crop b” value in data set [4] was 1 (Herbicidal rate of 5% or more and less than 20%). In addition, the “effect on crop, c: corn” value in data set [5] (setting [11]) is 1 (Herbicidal rate of 5% or more and less than 20%). Also, the “effect on crop, f: beet” value in data set [6] (setting [11]) was 5 (Herbicidal rate of 90% or more (almost completely withered)). For the same compound, in data set [7] (320 g/ha), the “effect rating on crop, g: rapeseed” value was 1 (Herbicidal rate of 5% or more and less than 20%). Besides, the “effect on crop, d: soybean” value in [8] (setting [11]) is 4 (Herbicidal rate of 70% or more and less than 90%). In addition, the “effect rating on crop, d: soybean” value in [9] (320 g/ha) is given as 0 (Herbicidal rate of 5% or less (almost no effect)).
